# Laboratory results published in PubChem BioAssay (NCI).
#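 Step 1: Grow cells in 96-well plates. Step 2: Expose to compound for 48 hours at 5 concentrations. Step 3: Interpolate endpoints linearly; if unreached, use highest concentration. GI50 is the concentration that inhibits growth by half. The concentration for full growth arrest is given as TGI.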
# Experiments:
# Assay in all cases: inhibition of tumour cell growth, NCI panel, 48 h
# TK-10 renal = system: TK-10 renal
# HS 578T breast = system: HS 578T breast
# HCT-116 colon = system: HCT-116 colon
# SF-268 CNS = system: SF-268 CNS
# NCI-H460 lung = system: NCI-H460 lung
# SK-MEL-2 melanoma = system: SK-MEL-2 melanoma
# NCI-H226 lung = system: NCI-H226 lung
# KM12 colon = system: KM12 colon
# COLO 205 colon = system: COLO 205 colon
# U251 CNS = system: U251 CNS
# UO-31 renal = system: UO-31 renal
# SW-620 colon = system: SW-620 colon
# SNB-75 CNS = system: SNB-75 CNS
# BT-549 breast = system: BT-549 breast
# SF-539 CNS = system: SF-539 CNS
# OVCAR-5 ovarian = system: OVCAR-5 ovarian
# SK-MEL-28 melanoma = system: SK-MEL-28 melanoma
# A549 NSCLC = system: A549 NSCLC
# NCI-H23 lung = system: NCI-H23 lung
# HCT-15 colon = system: HCT-15 colon
# OVCAR-4 ovarian = system: OVCAR-4 ovarian
# OVCAR-8 ovarian = system: OVCAR-8 ovarian
# UACC-257 melanoma = system: UACC-257 melanoma
# HOP-62 NSCLC = system: HOP-62 NSCLC
# UACC-62 melanoma = system: UACC-62 melanoma
# MDA-MB-231 breast = system: MDA-MB-231 breast
# 786-0 renal = system: 786-0 renal
# RXF 393 renal = system: RXF 393 renal
# LOX IMVI melanoma = system: LOX IMVI melanoma
# SK-OV-3 ovarian = system: SK-OV-3 ovarian
# A498 renal = system: A498 renal
# SK-MEL-5 melanoma = system: SK-MEL-5 melanoma
# M14 melanoma = system: M14 melanoma
# PC-3 prostate = system: PC-3 prostate
# RPMI-8226 leukemia = system: RPMI-8226 leukemia
# NCI-H522 lung = system: NCI-H522 lung
# SN12C renal = system: SN12C renal
# SF-295 CNS = system: SF-295 CNS
# SNB-19 CNS = system: SNB-19 CNS
# DU-145 prostate = system: DU-145 prostate
# OVCAR-3 ovarian = system: OVCAR-3 ovarian
# HCC-2998 colon = system: HCC-2998 colon
# CAKI-1 renal = system: CAKI-1 renal
# ACHN renal = system: ACHN renal
# NCI/ADR-RES ovarian = system: NCI/ADR-RES ovarian
# HL-60(TB) leukemia = system: HL-60(TB) leukemia
# SR leukemia = system: SR leukemia
# CCRF-CEM leukemia = system: CCRF-CEM leukemia
# HOP-92 NSCLC = system: HOP-92 NSCLC
# MOLT-4 leukemia = system: MOLT-4 leukemia
# K-562 leukemia = system: K-562 leukemia
smiles,measurement,setting,value
CCCCCCNc1nc(N2CCOCC2)c2[nH]c(NCCCCCC)nc2n1,GI50,TK-10 renal,1870 nM
same,TGI,TK-10 renal,3450 nM
same,GI50,HS 578T breast,1370 nM
same,TGI,HS 578T breast,3160 nM
same,GI50,HCT-116 colon,1830 nM
same,TGI,HCT-116 colon,3270 nM
same,GI50,SF-268 CNS,1780 nM
same,TGI,SF-268 CNS,3440 nM
same,GI50,NCI-H460 lung,1550 nM
same,TGI,NCI-H460 lung,2970 nM
same,GI50,SK-MEL-2 melanoma,1890 nM
same,TGI,SK-MEL-2 melanoma,3510 nM
same,GI50,NCI-H226 lung,1700 nM
same,TGI,NCI-H226 lung,4000 nM
same,GI50,KM12 colon,1670 nM
same,TGI,KM12 colon,3060 nM
same,GI50,COLO 205 colon,1890 nM
same,TGI,COLO 205 colon,3600 nM
same,GI50,U251 CNS,1610 nM
same,TGI,U251 CNS,3180 nM
same,GI50,UO-31 renal,1360 nM
same,TGI,UO-31 renal,2840 nM
same,GI50,SW-620 colon,1440 nM
same,TGI,SW-620 colon,2760 nM
same,GI50,SNB-75 CNS,1460 nM
same,TGI,SNB-75 CNS,2770 nM
same,GI50,BT-549 breast,1660 nM
same,TGI,BT-549 breast,3040 nM
same,GI50,SF-539 CNS,1820 nM
same,TGI,SF-539 CNS,3330 nM
same,GI50,OVCAR-5 ovarian,1610 nM
same,TGI,OVCAR-5 ovarian,2960 nM
same,GI50,SK-MEL-28 melanoma,1650 nM
same,TGI,SK-MEL-28 melanoma,3010 nM
same,GI50,A549 NSCLC,1690 nM
same,TGI,A549 NSCLC,3380 nM
same,GI50,NCI-H23 lung,1350 nM
same,TGI,NCI-H23 lung,2630 nM
same,GI50,HCT-15 colon,1640 nM
same,TGI,HCT-15 colon,3220 nM
same,GI50,OVCAR-4 ovarian,1430 nM
same,TGI,OVCAR-4 ovarian,2870 nM
same,GI50,OVCAR-8 ovarian,1770 nM
same,TGI,OVCAR-8 ovarian,3740 nM
same,GI50,UACC-257 melanoma,1620 nM
same,TGI,UACC-257 melanoma,3160 nM
same,GI50,HOP-62 NSCLC,1670 nM
same,TGI,HOP-62 NSCLC,3270 nM
same,GI50,UACC-62 melanoma,1630 nM
same,TGI,UACC-62 melanoma,3120 nM
same,GI50,MDA-MB-231 breast,1810 nM
same,TGI,MDA-MB-231 breast,3300 nM
same,GI50,786-0 renal,1800 nM
same,TGI,786-0 renal,3190 nM
same,GI50,RXF 393 renal,1360 nM
same,TGI,RXF 393 renal,2670 nM
same,GI50,LOX IMVI melanoma,1480 nM
same,TGI,LOX IMVI melanoma,2800 nM
same,GI50,SK-OV-3 ovarian,1730 nM
same,TGI,SK-OV-3 ovarian,3140 nM
same,GI50,A498 renal,1110 nM
same,TGI,A498 renal,2310 nM
same,GI50,SK-MEL-5 melanoma,1420 nM
same,TGI,SK-MEL-5 melanoma,2720 nM
same,GI50,M14 melanoma,1840 nM
same,TGI,M14 melanoma,3390 nM
same,GI50,PC-3 prostate,1680 nM
same,TGI,PC-3 prostate,3540 nM
same,GI50,RPMI-8226 leukemia,1910 nM
same,TGI,RPMI-8226 leukemia,5420 nM
same,GI50,NCI-H522 lung,1580 nM
same,TGI,NCI-H522 lung,3370 nM
same,GI50,SN12C renal,1760 nM
same,TGI,SN12C renal,3320 nM
same,GI50,SF-295 CNS,1650 nM
same,TGI,SF-295 CNS,3210 nM
same,GI50,SNB-19 CNS,1800 nM
same,TGI,SNB-19 CNS,3410 nM
same,GI50,DU-145 prostate,1510 nM
same,TGI,DU-145 prostate,2830 nM
same,GI50,OVCAR-3 ovarian,1760 nM
same,TGI,OVCAR-3 ovarian,3140 nM
same,GI50,HCC-2998 colon,1700 nM
same,TGI,HCC-2998 colon,3070 nM
same,GI50,CAKI-1 renal,1530 nM
same,TGI,CAKI-1 renal,2970 nM
same,GI50,ACHN renal,1600 nM
same,TGI,ACHN renal,2950 nM
same,GI50,NCI/ADR-RES ovarian,1590 nM
same,TGI,NCI/ADR-RES ovarian,2970 nM
Cc1ccc(NC(=O)c2[nH]c(SCCN(C)C)nc2-c2ccc(F)cc2)cc1C#Cc1cnc2cccnn12,GI50,HL-60(TB) leukemia,1380 nM
same,TGI,HL-60(TB) leukemia,3140 nM
same,GI50,SR leukemia,460 nM
same,TGI,SR leukemia,2220 nM
same,GI50,CCRF-CEM leukemia,2080 nM
same,TGI,CCRF-CEM leukemia,6920 nM
same,GI50,SK-MEL-2 melanoma,1350 nM
same,TGI,SK-MEL-2 melanoma,3160 nM
same,GI50,UO-31 renal,1380 nM
same,TGI,UO-31 renal,2790 nM
same,GI50,SNB-75 CNS,1590 nM
same,TGI,SNB-75 CNS,2990 nM
same,GI50,UACC-257 melanoma,1880 nM
same,TGI,UACC-257 melanoma,3510 nM
same,GI50,SK-OV-3 ovarian,1920 nM
same,TGI,SK-OV-3 ovarian,3440 nM
same,GI50,HOP-92 NSCLC,1080 nM
same,TGI,HOP-92 NSCLC,2730 nM
same,GI50,A498 renal,1760 nM
same,TGI,A498 renal,3320 nM
same,GI50,PC-3 prostate,2120 nM
same,TGI,PC-3 prostate,4890 nM
same,GI50,RPMI-8226 leukemia,1910 nM
same,TGI,RPMI-8226 leukemia,6050 nM
same,GI50,DU-145 prostate,1830 nM
same,TGI,DU-145 prostate,3340 nM
same,GI50,MOLT-4 leukemia,1930 nM
same,TGI,MOLT-4 leukemia,4830 nM
same,GI50,K-562 leukemia,127 nM
same,TGI,K-562 leukemia,1550 nM
